Laboratory results: patent publication US9186421B2, “Establishment of rhesus monkey model of autoimmunity type 1 diabetes” (West China Hospital, Sichuan University, priority 2010, dated 2015)

How the values were obtained:
[1] = tested on: rhesus monkeys; assay: Diabetes model prepared by low dose STZ induction; format: in vivo, rhesus monkey
Procedure: Low dose of STZ was administered intravenously for 5 consecutive days, at a dose of 15-30 mg/kg per time; and administrated again on the 7th day and 14th day after last administration. Fasting glucose was observed once each week.
6 rhesus monkeys were used to prepare models according to the method of the present invention and 4 models were successfully prepared. […]

[2] = tested on: rhesus monkey model of autoimmune type 1 diabetes; assay: Insulin treatment of the rhesus monkey model of autoimmune type 1 diabetes; format: in vivo
Procedure: At present, insulin injection is the main treatment method of autoimmune type 1 diabetes. Insulin was applied to the rhesus monkey model of autoimmune type 1 diabetes in this experiment. The specific way was as follows:
1. According to the habit of eating twice per day of rhesus monkeys, different types of insulin were injected twice a day (9:30 am & 17:30 pm) in different doses, applied to the autoimmune type 1 diabetes model prepared by Example 1 of the present invention: combined treatment of (1) long-acting insulin: porcine insulin (protamine zinc insulin) produced by Wanbang Company (Xuzhou, China) and (2) short-acting insulin: ordinary porcine insulin produced by Wanbang Company (Xuzhou, China).
2. Initially, low dose of insulin (0.4 U/kg) was injected subcutaneously so as to avoid the occurrence of low blood glucose.
3. The fasting and postprandial glucose levels were monitored. The administration dosage was adjusted according to the blood glucose level, finally allowing the fasting and postprandial blood glucose to be less than 10 mmol/L and glycosylated hemoglobin to be less than 6.5%.

[3] = established model after low dose STZ i.v.
[4] = insulin s.c. twice a day, start 0.4 U/kg, dosage adjusted to blood glucose

CN(N=O)C(=O)N[C@@H](C=O)[C@@H](O)[C@H](O)[C@H](O)CO [STZ, Streptozotocin]
fasting blood glucose, fluctuation ([1]; after intravenous injection of STZ, 20 or 25 mg/kg per time, days 1-5, 12, 19): 3.2 to 17.6 mmol/L
fasting blood glucose, consistently [1, 3]: higher than 11.1 mmol/L
serum C-peptide [1, 3]: less than 0.3 nM
glucagon expression-positive cells in the islet tissue ([1]; immunohistochemistry, FIG. 3B): above 90%
models successfully prepared ([1]; of 6 rhesus monkeys): 4

Insulin: combined treatment of long-acting porcine insulin (protamine zinc insulin) and short-acting ordinary porcine insulin, Wanbang Company
fasting and postprandial blood glucose [2, 4]: less than 10 mmol/L
glycosylated hemoglobin [2, 4]: less than 6.5%
therapeutic effect on autoimmune type 1 diabetes ([2]; long-acting plus short-acting porcine insulin): better therapeutic effect
